{"source": "patent US5672715A", "about": "“Herbicidal substituted 3-aryl-pyrazoles” (Monsanto Company, priority 1995, dated 1997)", "format_in_all_cases": "in vivo", "key": {"Barnyardgrass [1]": {"tested_on": "Barnyardgrass", "test": "pre-emergence herbicide test", "settings": "Echinochloa crus-galli, pre-emergence, read-out: % plant inhibition", "summary_of_the_method": "(§1)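 Sown seeds covered with dosed topsoil; carrier acetone or water; greenhouse, watered from below, optional 1/4 in overhead irrigation post-treatment; % inhibition at ~14 d.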"}, "Morning Glory [2]": {"tested_on": "Morning Glory", "test": "pre-emergence herbicide test", "settings": "Ipomoea, pre-emergence, read-out: % plant inhibition", "summary_of_the_method": "as §1"}, "Rice": {"tested_on": "Rice", "test": "pre-emergence herbicide test", "settings": "Oryza sativa, read-out: % plant inhibition", "summary_of_the_method": "as §1"}, "Barnyardgrass [3]": {"tested_on": "Barnyardgrass", "test": "post-emergence herbicide test", "settings": "Echinochloa crus-galli, post-emergence, read-out: % plant inhibition", "summary_of_the_method": "(§2)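 Greenhouse pot test: seeds pressed into compacted topsoil in pans, covered, watered as needed; at two to three weeks plants were sprayed by atomizer at 170.3 kPa, 1870 L/Ha, with about 0.4% v/v emulsifier. Value is percent inhibition per species.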"}, "Bedstraw Catchweed": {"tested_on": "Bedstraw Catchweed", "test": "post-emergence herbicide test", "settings": "Galium aparine, post-emergence, read-out: % plant inhibition", "summary_of_the_method": "as §2"}, "Blackgrass": {"tested_on": "Blackgrass", "test": "post-emergence herbicide test", "settings": "Alopecurus myosuroides, post-emergence, read-out: % plant inhibition; for inhibition at 200.072 g/ha: 0.1785 lb/A; for inhibition at 1000.92 g/ha: 0.893 lb/A; for inhibition at 5043.82 g/ha: 4.5 lb/A", "summary_of_the_method": "as §2"}, "Cocklebur": {"tested_on": "Cocklebur", "test": "post-emergence herbicide test", "settings": "Xanthium strumarium, post-emergence, read-out: % plant inhibition", "summary_of_the_method": "as §2"}, "Common Chickweed": {"tested_on": "Common Chickweed", "test": "post-emergence herbicide test", "settings": "post-emergence, read-out: % plant inhibition", "summary_of_the_method": "as §2"}, "Corn": {"tested_on": "Corn", "test": "post-emergence herbicide test", "settings": "Zea mays, post-emergence, read-out: % plant inhibition", "summary_of_the_method": "as §2"}, "Morning Glory [4]": {"tested_on": "Morning Glory", "test": "post-emergence herbicide test", "settings": "Ipomoea, post-emergence, read-out: % plant inhibition", "summary_of_the_method": "as §2"}, "Soybean": {"tested_on": "Soybean", "test": "post-emergence herbicide test", "settings": "Glycine max, post-emergence, read-out: % plant inhibition", "summary_of_the_method": "as §2"}, "Velvetleaf": {"tested_on": "Velvetleaf", "test": "post-emergence herbicide test", "settings": "Abutilon theophrasti, post-emergence, read-out: % plant inhibition", "summary_of_the_method": "as §2"}, "Wheat": {"tested_on": "Wheat", "test": "post-emergence herbicide test", "settings": "Triticum aestivum, post-emergence, read-out: % plant inhibition", "summary_of_the_method": "as §2"}, "Yellow Foxtail": {"tested_on": "Yellow Foxtail", "test": "post-emergence herbicide test", "settings": "Setaria, read-out: % plant inhibition", "summary_of_the_method": "as §2"}, "Yellow Nutsedge": {"tested_on": "Yellow Nutsedge", "test": "post-emergence herbicide test", "settings": "Cyperus, read-out: % plant inhibition", "summary_of_the_method": "as §2"}}, "note": "Like-named read-outs stand apart in the source and are kept apart here.", "data": [{"smiles": "Cn1nc(-c2cc(F)ccc2F)c(C=O)c1C(F)(F)F", "note": "[Compound 34]", "values": [{"measurement": "inhibition at 200.072 g/ha", "setting": "Barnyardgrass [1]; 0.1785 lb/A", "value": 0, "unit": "%"}, {"measurement": "inhibition at 1000.92 g/ha", "setting": "Barnyardgrass [1]; 0.893 lb/A", "value": 0, "unit": "%"}, {"measurement": "inhibition at 5043.82 g/ha", "setting": "Barnyardgrass [1]; 4.5 lb/A", "value": 0, "unit": "%"}, {"measurement": "inhibition at 200.072 g/ha", "setting": "Morning Glory [2]; 0.1785 lb/A", "value": 0, "unit": "%"}, {"measurement": "inhibition at 1000.92 g/ha", "setting": "Morning Glory [2]; 0.893 lb/A", "value": 0, "unit": "%"}, {"measurement": "inhibition at 5043.82 g/ha", "setting": "Morning Glory [2]; 4.5 lb/A", "value": 0, "unit": "%"}, {"measurement": "inhibition at 200.072 g/ha", "setting": "Rice; 0.1785 lb/A", "value": 0, "unit": "%"}, {"measurement": "inhibition at 1000.92 g/ha", "setting": "Rice; 0.893 lb/A", "value": 0, "unit": "%"}, {"measurement": "inhibition at 5043.82 g/ha", "setting": "Rice; 4.5 lb/A", "value": 0, "unit": "%"}, {"measurement": "inhibition at 200.072 g/ha", "setting": "Barnyardgrass [3]; 0.1785 lb/A", "value": 0, "unit": "%"}, {"measurement": "inhibition at 1000.92 g/ha", "setting": "Barnyardgrass [3]; 0.893 lb/A", "value": 0, "unit": "%"}, {"measurement": "inhibition at 5043.82 g/ha", "setting": "Barnyardgrass [3]; 4.5 lb/A", "value": 10, "unit": "%"}, {"measurement": "inhibition at 200.072 g/ha", "setting": "Bedstraw Catchweed; 0.1785 lb/A", "value": 0, "unit": "%"}, {"measurement": "inhibition at 1000.92 g/ha", "setting": "Bedstraw Catchweed; 0.893 lb/A", "value": 0, "unit": "%"}, {"measurement": "inhibition at 5043.82 g/ha", "setting": "Bedstraw Catchweed; 4.5 lb/A", "value": 80, "unit": "%"}, {"measurement": "inhibition at 200.072 g/ha", "setting": "Blackgrass; Table 4a", "value": 0, "unit": "%"}, {"measurement": "inhibition at 200.072 g/ha", "setting": "Blackgrass; Table 5a", "value": 0, "unit": "%"}, {"measurement": "inhibition at 1000.92 g/ha", "setting": "Blackgrass; Table 4a", "value": 0, "unit": "%"}, {"measurement": "inhibition at 1000.92 g/ha", "setting": "Blackgrass; Table 5a", "value": 0, "unit": "%"}, {"measurement": "inhibition at 5043.82 g/ha", "setting": "Blackgrass; Table 4a", "value": 0, "unit": "%"}, {"measurement": "inhibition at 5043.82 g/ha", "setting": "Blackgrass; Table 5a", "value": 30, "unit": "%"}, {"measurement": "inhibition at 200.072 g/ha", "setting": "Cocklebur; 0.1785 lb/A", "value": 0, "unit": "%"}, {"measurement": "inhibition at 1000.92 g/ha", "setting": "Cocklebur; 0.893 lb/A", "value": 0, "unit": "%"}, {"measurement": "inhibition at 5043.82 g/ha", "setting": "Cocklebur; 4.5 lb/A", "value": 25, "unit": "%"}, {"measurement": "inhibition at 200.072 g/ha", "setting": "Common Chickweed; 0.1785 lb/A", "value": 0, "unit": "%"}, {"measurement": "inhibition at 1000.92 g/ha", "setting": "Common Chickweed; 0.893 lb/A", "value": 0, "unit": "%"}, {"measurement": "inhibition at 5043.82 g/ha", "setting": "Common Chickweed; 4.5 lb/A", "value": 0, "unit": "%"}, {"measurement": "inhibition at 200.072 g/ha", "setting": "Corn; 0.1785 lb/A", "value": 0, "unit": "%"}, {"measurement": "inhibition at 1000.92 g/ha", "setting": "Corn; 0.893 lb/A", "value": 0, "unit": "%"}, {"measurement": "inhibition at 5043.82 g/ha", "setting": "Corn; 4.5 lb/A", "value": 15, "unit": "%"}, {"measurement": "inhibition at 200.072 g/ha", "setting": "Morning Glory [4]; 0.1785 lb/A", "value": 0, "unit": "%"}, {"measurement": "inhibition at 1000.92 g/ha", "setting": "Morning Glory [4]; 0.893 lb/A", "value": 0, "unit": "%"}, {"measurement": "inhibition at 5043.82 g/ha", "setting": "Morning Glory [4]; 4.5 lb/A", "value": 55, "unit": "%"}, {"measurement": "inhibition at 200.072 g/ha", "setting": "Soybean; 0.1785 lb/A", "value": 0, "unit": "%"}, {"measurement": "inhibition at 1000.92 g/ha", "setting": "Soybean; 0.893 lb/A", "value": 10, "unit": "%"}, {"measurement": "inhibition at 5043.82 g/ha", "setting": "Soybean; 4.5 lb/A", "value": 15, "unit": "%"}, {"measurement": "inhibition at 200.072 g/ha", "setting": "Velvetleaf; 0.1785 lb/A", "value": 0, "unit": "%"}, {"measurement": "inhibition at 1000.92 g/ha", "setting": "Velvetleaf; 0.893 lb/A", "value": 0, "unit": "%"}, {"measurement": "inhibition at 5043.82 g/ha", "setting": "Velvetleaf; 4.5 lb/A", "value": 20, "unit": "%"}, {"measurement": "inhibition at 200.072 g/ha", "setting": "Wheat; 0.1785 lb/A", "value": 0, "unit": "%"}, {"measurement": "inhibition at 1000.92 g/ha", "setting": "Wheat; 0.893 lb/A", "value": 0, "unit": "%"}, {"measurement": "inhibition at 5043.82 g/ha", "setting": "Wheat; 4.5 lb/A", "value": 10, "unit": "%"}, {"measurement": "inhibition at 200.072 g/ha", "setting": "Yellow Foxtail; 0.1785 lb/A", "value": 0, "unit": "%"}, {"measurement": "inhibition at 1000.92 g/ha", "setting": "Yellow Foxtail; 0.893 lb/A", "value": 0, "unit": "%"}, {"measurement": "inhibition at 5043.82 g/ha", "setting": "Yellow Foxtail; 4.5 lb/A", "value": 0, "unit": "%"}, {"measurement": "inhibition at 200.072 g/ha", "setting": "Yellow Nutsedge; 0.1785 lb/A", "value": 0, "unit": "%"}, {"measurement": "inhibition at 1000.92 g/ha", "setting": "Yellow Nutsedge; 0.893 lb/A", "value": 0, "unit": "%"}, {"measurement": "inhibition at 5043.82 g/ha", "setting": "Yellow Nutsedge; 4.5 lb/A", "value": 0, "unit": "%"}]}]}
